Drawing on US6548516B1, “1-(3-heteroarylpropyl- or -prop-2-enyl)-4-benzylpiperidines used as NMDA receptor antagonists” (Merck Patent GmbH, priority 1998, dated 2003), this text covers melting point for two molecules.

As usually defined, the melting point is the temperature, or range, at which the solid turns liquid.

Take `O=c1[nH]c2ccc(CCCN3CCC(Cc4ccc(F)cc4)CC3)cc2o1` [Example 1, 6-{3-[4-(4-fluorobenzyl)piperid-1-yl]propyl}-3H-benzoxazol-2-one]: the melting point lay in the range of 105 to 107 °C. Molecule `O=c1[nH]c2ccc(C=CCN3CCC(Cc4ccc(F)cc4)CC3)cc2o1` [Example 2, 6-{3-[4-(4-fluorobenzyl)piperid-1-yl]propenyl}-3H-benzoxazol-2-one] returned a melting point of 202 to 203.5 °C.
